Experimental data taken from article PMC10165273, “Itch receptor MRGPRX4 interacts with the receptor activity–modifying proteins” (The Journal of Biological Chemistry, 2023).
Values joined by “and” are separate entries in the source; they are usually repeats but may differ in a detail not shown here. Equal entries are not always repeated. Where two headings read alike, the source gives them in different places.

Experiments:
MRGPRX4 + RAMP1 = target: T1, MRGPRX4 + RAMP1 (Homo sapiens, UniProt Q96LA9); experiment: IP1 accumulation, MRGPRX4 coexpressed with RAMP1; format: cell-based; set-up: key to IP1 Basal / response to agonist, X4:ramp1.I:1 / response to agonist, X4:ramp1.I:2 / response to agonist, X4:ramp1.I:0.25 / response to agonist, X4:ramp1.I:0.5: % IP1; unstimulated mock = 0%, fully stimulated MRGPRX4 = 100%; settings: for EC50: read-out: IP1 EC50; for IP1 accumulation (normalized): MRGPRX4+RAMP1 1pg 1:1, Supplementary Figure 5d, 5g
T1 construct: expressed in transfected cells; host or cells: HEK293T
T1 sequence (Q96LA9 whole entry): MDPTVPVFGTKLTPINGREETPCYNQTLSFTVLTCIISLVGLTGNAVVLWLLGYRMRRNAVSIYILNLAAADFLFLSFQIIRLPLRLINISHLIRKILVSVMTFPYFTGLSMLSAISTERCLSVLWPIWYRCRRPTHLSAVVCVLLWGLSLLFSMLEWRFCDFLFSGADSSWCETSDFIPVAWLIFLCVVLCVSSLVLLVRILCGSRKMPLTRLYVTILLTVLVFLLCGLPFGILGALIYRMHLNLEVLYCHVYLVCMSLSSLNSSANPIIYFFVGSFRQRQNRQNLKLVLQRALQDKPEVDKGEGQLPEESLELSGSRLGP
Experimental: HEK293T cells were transfected with 1 pg/cell of MRGPRX4 DNA, and the amount of DNA was kept constant at 2 pg/cell with pcDNA3.1(+) empty vector, unless otherwise specified. Twenty four hours after transfection, IP1 assay was performed as previously described ([51]). When applicable, cells were treated with 1 μM YM254890 (YM) or different concentrations of U73122 for 1 h prior to addition of agonist or buffer. After incubation for 2 h, HTRF reagents and IP1 calibration standards were added and incubated for 2 h in the dark at room temperature. Time-resolved fluorescence signals were read on the BioTek Synergy NEO-TRF Hybrid multi-mode reader (BioTek Instruments). All data were carried out in three independent experiments with three technical replicate each.
For a homogenous transfection of MRGPRX4, a master mix of MRGPRX4 DNA was made prior to addition of the RAMP DNA. […]
Data reduction, standard calibration, and transformation of HTRF data were performed as previously described ([51]). Normalized IP1 values were calculated relative to the unstimulated mock-transfected cells (set to 0%) and fully stimulated MRGPRX4 (alone if applicable) (set to 100%).

[1] = test system: mock-transfected HEK293T cells; experiment: IP1 accumulation, mock-transfected cells; format: cell-based, human; set-up: IP1 Basal / IP1 span / IP1 Emax / IP1 accumulation, dose-response (Figure 1a) / IP1 accumulation with YM (Figure 1c) / IP1 accumulation: unit not given here; settings: for IP1 accumulation, dose-response (Figure 1a): pcDNA (mock), individual replicates; for IP1 accumulation: mock, Fig S3a-c
MRGPRX4 [2] = target: T2, MRGPRX4 (Homo sapiens, UniProt Q96LA9); experiment: BRET2 β-arrestin1 recruitment to MRGPRX4; format: cell-based; settings: for net BRET2 ratio, βArr1 recruitment: Fig 5a, 100µM ligand, replicate values, listed as Ng
T2 construct: expressed in transfected cells; host or cells: HEK293T
T2 sequence (Q96LA9 whole entry): as above
Experimental: (§1) The method for homogenous transfection of β-Arrestin and BRET^2 assay of β-Arrestin recruitment has been described previously ([51]). […] BRET^2 measurements were taken on the BioTek Synergy NEO2 microplate reader.
(§2) For MRGPRX4 DNA titration assays, HEK293T cells were cotransfected with either β-Arrestin1 or β-Arrestin2 with increasing amounts of MRGPRX4 (0.5, 1, or 2 pg/cell).
(§3) The BRET ratio for each sample was determined by calculating the ratio of the light intensity emitted by the GFP10 (515 nm) (acceptor) over the light intensity emitted by the RLuc3 (395 nm) (donor). Net BRET^2 was determined by subtracting the basal BRET^2 (β-arrestin-RLuc3 only) signal from the BRET^2 signals. All BRET values were normalized to the MRGPRX4-only condition.

MRGPRX4 [3] = target: T2, MRGPRX4; experiment: BRET2 β-arrestin2 recruitment to MRGPRX4; format: cell-based; settings: for net BRET2 ratio, βArr2 recruitment: Fig 5b, 100µM ligand, replicate values, listed as Ng
Text: as §1, §2
To measure the time-course of β-Arrestin2 recruitment to MRGPRX4 and CALCRL, the transfection and general procedure described above was followed, with the modification that Prolume Purple was added first, followed by addition of the appropriate agonists ([51]).
as §3

[4] = Tet-On MRGPRX4:RAMP1 Ratio 1:0.5 (Fig. S5D)
[5] = Tet-On MRGPRX4:RAMP1 Ratio 1:0.75 (Fig. S5D)
[6] = Tet-On MRGPRX4:RAMP1 Ratio 1:1 (Fig. S5D)

CC(C)[C@H]1CC[C@H](C(=O)N[C@H](Cc2ccccc2)C(=O)O)CC1 [Nateglinide]
Emax (MRGPRX4 + RAMP1; MRGPRX4 + RAMP1 2 pg (Fig. S3), normalized per agonist, read-out: IP1 span): 102% | IP1 Basal (MRGPRX4 + RAMP1; [4]): 7.772 | EC50 (MRGPRX4 + RAMP1; [4]): 8.42 µM | Emax (MRGPRX4 + RAMP1; Tet-On MRGPRX4:RAMP1 Ratio 1:0.5 (Fig. S5D), read-out: IP1 Emax): 111% | Emax (MRGPRX4 + RAMP1; Tet-On MRGPRX4:RAMP1 Ratio 1:0.5 (Fig. S5D), read-out: IP1 span): 104% | IP1 Basal (MRGPRX4 + RAMP1; [5]): 6.875 | EC50 (MRGPRX4 + RAMP1; [5]): 5.95 µM | Emax (MRGPRX4 + RAMP1; Tet-On MRGPRX4:RAMP1 Ratio 1:0.75 (Fig. S5D), read-out: IP1 Emax): 90% | Emax (MRGPRX4 + RAMP1; Tet-On MRGPRX4:RAMP1 Ratio 1:0.75 (Fig. S5D), read-out: IP1 span): 83.1% | IP1 Basal (MRGPRX4 + RAMP1; [6]): 7.220 | EC50 (MRGPRX4 + RAMP1; [6]): 6.43 µM | Emax (MRGPRX4 + RAMP1; Tet-On MRGPRX4:RAMP1 Ratio 1:1 (Fig. S5D), read-out: IP1 Emax): 89.6% | Emax (MRGPRX4 + RAMP1; Tet-On MRGPRX4:RAMP1 Ratio 1:1 (Fig. S5D), read-out: IP1 span): 82.3% | IP1 accumulation (normalized) (MRGPRX4 + RAMP1; log [nateglinide] (M) -4): 91.5442 and 89.3648 and 84.5333 and 68.7205 | IP1 accumulation (normalized) (MRGPRX4 + RAMP1; log [nateglinide] (M) -4.69897): 71.6977 and 68.3681 and 72.5875 | IP1 accumulation (normalized) (MRGPRX4 + RAMP1; log [nateglinide] (M) -5.39794): 40.9098 and 36.9736 and 38.5575 | IP1 accumulation (normalized) (MRGPRX4 + RAMP1; log [nateglinide] (M) -6.09691): 15.3098 and 13.9439 and 10.1316 | IP1 accumulation (normalized) (MRGPRX4 + RAMP1; log [nateglinide] (M) -7.49485): 9.7787 and 6.02 and 5.114 | IP1 accumulation, dose-response (Figure 1a) ([1]; log [agonist] (M) -4): 0.2271 and 0.3078 and 0.4629 and -0.5571 and 0.3306 and 0.0456 and 0.8656 and -0.04322 and 0.1347 and -0.9843 and -0.02794 and -0.8867 | IP1 accumulation, dose-response (Figure 1a) ([1]; log [agonist] (M) -4.95424): 0.4814 and 0.1593 and 0.9731 and 0.2847 and 0.3905 and 0.01267 and 0.9879 and -0.1469 and 0.1915 and -0.5702 and -0.3086 and -0.9418 | IP1 accumulation, dose-response (Figure 1a) ([1]; log [agonist] (M) -5.90849): 0.6831 and 0.2899 and 0.8301 and 0.7307 and 0.1868 and 0.3562 and 0.4874 and 0.05414 and 0.7331 and -0.7448 and -0.08445 and -0.6788 | IP1 accumulation, dose-response (Figure 1a) ([1]; log [agonist] (M) -6.86273): 1.046 and 0.7412 and 1.424 and 1.025 and 0.6018 and 0.6703 and 1.266 and 0.6126 and 1.453 and 0.03754 and 0.2747 and 0.1665 | IP1 accumulation ([1]; log [Nateglinide] (M) -4): 1.284 and 1.14 | IP1 accumulation ([1]; log [Nateglinide] (M) -4.69897): 0.9537 and 0.9999 and 1.07 | normalized IP1 accumulation ([1]; pcDNA, log [agonist] (M) -5.39794): 0.47 and 0.5436 and 0.4562 | β-arrestin1 recruitment to MRGPRX4 (MRGPRX4 [2]; 100 μM agonist (Fig. 5A)): very low β-arrestin1 recruitment | net BRET2 ratio, βArr1 recruitment (MRGPRX4 [2]; MRGPRX4 20ng, 0.5 pg DNA/cell): 0.001598 and 0.001911 and 0.001766 and 0.001511 and 0.001907 and 0.001761 and 0.001482 and 0.001441 and 0.001223 and 0.001859 and 0.001157 and 0.001231 and 0.00136 and 0.0008839 and 0.000388 and 0.001053 and 0.001203 and 0.000951 and 0.0007681 and 0.0005323 and 0.0008933 and 0.0008719 and 0.001239 and 0.001046 and 0.001091 | net BRET2 ratio, βArr1 recruitment (MRGPRX4 [2]; MRGPRX4 40ng, 1 pg DNA/cell): 0.001875 and 0.002517 and 0.002385 and 0.001913 and 0.002075 and 0.001709 and 0.001872 and 0.002414 and 0.002488 and 0.001826 and 0.002129 and 0.001258 and 0.0007412 and 0.002042 and 0.001771 and 0.001548 and 0.001966 and 0.0009568 and 0.001828 and 0.001183 and 0.001043 and 0.001073 and 0.0007023 and 0.00193 and 0.002589 and 0.001421 and 0.00209 | net BRET2 ratio, βArr1 recruitment (MRGPRX4 [2]; MRGPRX4 80ng, 2 pg DNA/cell): 0.002996 and 0.002474 and 0.002377 and 0.001821 and 0.003223 and 0.002725 and 0.001839 and 0.003232 and 0.002812 and 0.002723 and 0.003057 and 0.001936 and 0.00205 and 0.002139 and 0.001864 and 0.00174 and 0.001944 and 0.002317 and 0.002724 | net BRET2 ratio, βArr1 recruitment (MRGPRX4 [2]; βArr1 only, 0 pg MRGPRX4 DNA/cell): 0.0003439 and -7.335e-5 and -0.0002706 and -9.392e-5 and -0.0001296 and 0.0002236 and -2.118e-6 and -0.0001045 and 0.0001067 and 0.000324 and -0.0001421 and -0.0001819 and 0.0002245 and -0.0001005 and -0.000124 and -9.463e-5 and 0.0003743 and -0.0002797 and -0.0002549 and 6.253e-5 and 0.0001923 and 0.0001254 and -0.000481 and 0.0003557 and 0.0001817 and -2.148e-5 and -0.0001602 | β-arrestin2 recruitment to MRGPRX4 (MRGPRX4 [3]; 100 μM agonist (Fig. 5B, C)): recruited β-arrestin2 more strongly than β-arrestin1 | net BRET2 ratio, βArr2 recruitment (MRGPRX4 [3]; MRGPRX4 20ng, 0.5 pg DNA/cell): 0.01059 and 0.011 and 0.01083 and 0.009137 and 0.01004 and 0.009779 and 0.007885 and 0.007959 and 0.007875 and 0.009405 and 0.008616 and 0.00928 and 0.007811 and 0.00797 and 0.009994 and 0.008653 and 0.00706 and 0.007614 and 0.007209 and 0.007504 and 0.007132 and 0.006566 and 0.006348 and 0.007157 and 0.004522 and 0.007759 and 0.005207 | net BRET2 ratio, βArr2 recruitment (MRGPRX4 [3]; MRGPRX4 40ng, 1 pg DNA/cell): 0.01411 and 0.01341 and 0.01314 and 0.01164 and 0.01153 and 0.01104 and 0.009585 and 0.009093 and 0.008671 and 0.0118 and 0.009621 and 0.01107 and 0.01117 and 0.01052 and 0.009545 and 0.01099 and 0.00914 and 0.009334 and 0.008409 and 0.01062 and 0.01019 and 0.008186 and 0.008003 and 0.007557 and 0.007525 and 0.005338 and 0.009291 | net BRET2 ratio, βArr2 recruitment (MRGPRX4 [3]; MRGPRX4 80ng, 2 pg DNA/cell): 0.01501 and 0.01563 and 0.01506 and 0.0134 and 0.0136 and 0.01318 and 0.01149 and 0.0115 and 0.01095 (2×) and 0.01387 and 0.01159 and 0.01257 and 0.01157 and 0.01276 and 0.01058 and 0.009957 and 0.009364 and 0.01169
